Test system: 422866-222-R5-J1-PDC spheroids with HUVEC/MSC, viability
Assay: Anticancer human tumor 422866-222-R5-J1-PDC patient-derived pancreatic adenocarcinoma cell line growth inhibition [GQUAD]
Details: for IC50: curve of first compound; for viability, T/C: stronger effect = lower value
Method in brief: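 Viability of tumor cells grown as complex spheroids with endothelial and stromal cells, exposed to drug combinations. Top concentration at or near clinical Cmax (else 10 microM), diluted in half-log increments.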

[1] = second compound 0.0316 µM, first compound 0.0316 µM
[2] = second compound 0.0316 µM, first compound 0.1 µM
[3] = second compound 0.0316 µM, first compound 0.316 µM
[4] = second compound 0.0316 µM, first compound 1 µM
[5] = second compound 0.0316 µM, first compound 3.16 µM
[6] = second compound 0.0316 µM, first compound 10 µM
[7] = second compound 0.1 µM, first compound 0.0316 µM
[8] = second compound 0.1 µM, first compound 0.1 µM
[9] = second compound 0.1 µM, first compound 0.316 µM
[10] = second compound 0.1 µM, first compound 1 µM
[11] = second compound 0.1 µM, first compound 3.16 µM
[12] = second compound 0.1 µM, first compound 10 µM
[13] = second compound 0.316 µM, first compound 0.0316 µM
[14] = second compound 0.316 µM, first compound 0.1 µM
[15] = second compound 0.316 µM, first compound 0.316 µM
[16] = second compound 0.316 µM, first compound 1 µM
[17] = second compound 0.316 µM, first compound 3.16 µM
[18] = second compound 0.316 µM, first compound 10 µM
[19] = second compound 1 µM, first compound 0.0316 µM
[20] = second compound 1 µM, first compound 0.1 µM
[21] = second compound 1 µM, first compound 0.316 µM
[22] = second compound 1 µM, first compound 1 µM
[23] = second compound 1 µM, first compound 3.16 µM
[24] = second compound 1 µM, first compound 10 µM
[25] = second compound 3.16 µM, first compound 0.0316 µM
[26] = second compound 3.16 µM, first compound 0.1 µM
[27] = second compound 3.16 µM, first compound 0.316 µM
[28] = second compound 3.16 µM, first compound 1 µM
[29] = second compound 3.16 µM, first compound 3.16 µM
[30] = second compound 3.16 µM, first compound 10 µM
[31] = second compound 10 µM, first compound 0.0316 µM
[32] = second compound 10 µM, first compound 0.1 µM
[33] = second compound 10 µM, first compound 0.316 µM
[34] = second compound 10 µM, first compound 1 µM
[35] = second compound 10 µM, first compound 3.16 µM
[36] = second compound 10 µM, first compound 10 µM
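Also: spheroids exposed to compounds for seven days before reading.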
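For viability, T/C in this document: percent viability relative to DMSO vehicle control taken as 100%.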

COc1ncnc(C2CC2)c1-c1ncc2cnn(Cc3ccc(-c4nc(C(F)(F)F)cn4C(C)C)cc3)c2n1 + Cc1[nH]c2ccc(F)cc2c1-c1nc2c3cccnc3c3ncccc3c2[nH]1
IC50 (second compound 0.0316 µM): 8.04 µM
IC50 (second compound 0.1 µM): > 10 µM
IC50 (second compound 0.316 µM): > 10 µM
IC50 (second compound 1 µM): > 10 µM
IC50 (second compound 3.16 µM): > 10 µM
IC50 (second compound 10 µM): > 10 µM
viability, T/C [1]: 91.9%
viability, T/C [2]: 96.2%
viability, T/C [3]: 111%
viability, T/C [4]: 87.1%
viability, T/C [5]: 64.6%
viability, T/C [6]: 46.4%
viability, T/C [7]: 106%
viability, T/C [8]: 97.4%
viability, T/C [9]: 110%
viability, T/C [10]: 99.2%
viability, T/C [11]: 63.1%
viability, T/C [12]: 49.8%
viability, T/C [13]: 93%
viability, T/C [14]: 116%
viability, T/C [15]: 106%
viability, T/C [16]: 90.1%
viability, T/C [17]: 66.3%
viability, T/C [18]: 55.2%
viability, T/C [19]: 86%
viability, T/C [20]: 110%
viability, T/C [21]: 105%
viability, T/C [22]: 104%
viability, T/C [23]: 72.7%
viability, T/C [24]: 54.2%
viability, T/C [25]: 67.6%
viability, T/C [26]: 70.7%
viability, T/C [27]: 71.7%
viability, T/C [28]: 77.5%
viability, T/C [29]: 63.6%
viability, T/C [30]: 60.8%
viability, T/C [31]: 58.2%
viability, T/C [32]: 53.3%
viability, T/C [33]: 73.5%
viability, T/C [34]: 47.7%
viability, T/C [35]: 60.6%
viability, T/C [36]: 50.2%

O=C(NO)c1cnc(N2CCN(S(=O)(=O)c3ccc4ccccc4c3)CC2)nc1 + Cc1[nH]c2ccc(F)cc2c1-c1nc2c3cccnc3c3ncccc3c2[nH]1
IC50 (second compound 0.0316 µM): > 10 µM
IC50 (second compound 0.1 µM): > 10 µM
IC50 (second compound 0.316 µM): > 10 µM
IC50 (second compound 1 µM): > 10 µM
IC50 (second compound 3.16 µM): > 10 µM
IC50 (second compound 10 µM): > 10 µM
viability, T/C [1]: 78.6%
viability, T/C [2]: 69.2%
viability, T/C [3]: 64.7%
viability, T/C [4]: 68.1%
viability, T/C [5]: 71.6%
viability, T/C [6]: 75.4%
viability, T/C [7]: 81.1%
viability, T/C [8]: 68.3%
viability, T/C [9]: 56.4%
viability, T/C [10]: 61%
viability, T/C [11]: 74.2%
viability, T/C [12]: 72.3%
viability, T/C [13]: 77.5%
viability, T/C [14]: 68%
viability, T/C [15]: 71.4%
viability, T/C [16]: 61.7%
viability, T/C [17]: 63.2%
viability, T/C [18]: 78.1%
viability, T/C [19]: 64.4%
viability, T/C [20]: 61.6%
viability, T/C [21]: 62.6%
viability, T/C [22]: 61.2%
viability, T/C [23]: 75%
viability, T/C [24]: 70%
viability, T/C [25]: 56%
viability, T/C [26]: 56.6%
viability, T/C [27]: 51.6%
viability, T/C [28]: 63.3%
viability, T/C [29]: 67.8%
viability, T/C [30]: 66%
viability, T/C [31]: 60.1%
viability, T/C [32]: 47.8%
viability, T/C [33]: 59.5%
viability, T/C [34]: 57%
viability, T/C [35]: 51%
viability, T/C [36]: 64.4%

CC1COCCN1c1cc(C2(O)CC3CCC(C2)O3)c2cnn(-c3ccn[nH]3)c2n1 (stereo not drawn) + Cc1cnc(CNC(=O)c2c(=O)c3ccc(N4CCCN(C)CC4)nc3n3c2sc2ccccc23)cn1
IC50 (second compound 0.0316 µM): > 10 µM
IC50 (second compound 0.1 µM): 0.0316 µM
IC50 (second compound 0.316 µM): > 10 µM
IC50 (second compound 1 µM): > 10 µM
IC50 (second compound 3.16 µM): 0.0316 µM
IC50 (second compound 10 µM): 0.0316 µM
viability, T/C [1]: 64.2%
viability, T/C [2]: 43.7%
viability, T/C [3]: 43.1%
viability, T/C [4]: 61.8%
viability, T/C [5]: 80.2%
viability, T/C [6]: 82.9%
viability, T/C [7]: 67.7%
viability, T/C [8]: 51%
viability, T/C [9]: 35.3%
viability, T/C [10]: 49.2%
viability, T/C [11]: 86.7%
viability, T/C [12]: 90.4%
viability, T/C [13]: 74.2%
viability, T/C [14]: 61.2%
viability, T/C [15]: 47.8%
viability, T/C [16]: 47.4%
viability, T/C [17]: 85.5%
viability, T/C [18]: 81.9%
viability, T/C [19]: 70.1%
viability, T/C [20]: 63.9%
viability, T/C [21]: 44.1%
viability, T/C [22]: 53.6%
viability, T/C [23]: 74.9%
viability, T/C [24]: 85.4%
viability, T/C [25]: 59.7%
viability, T/C [26]: 63.5%
viability, T/C [27]: 42.2%
viability, T/C [28]: 46.2%
viability, T/C [29]: 75.2%
viability, T/C [30]: 76%
viability, T/C [31]: 61.4%
viability, T/C [32]: 62.4%
viability, T/C [33]: 45.2%
viability, T/C [34]: 36.8%
viability, T/C [35]: 68.6%
viability, T/C [36]: 78.5%

CC1COCCN1c1cc(C2(S(C)(=N)=O)CC2)nc(-c2ccnc3[nH]ccc23)n1 (stereo not drawn) + Cc1cnc(CNC(=O)c2c(=O)c3ccc(N4CCCN(C)CC4)nc3n3c2sc2ccccc23)cn1
IC50 (second compound 0.0316 µM): > 10 µM
IC50 (second compound 0.1 µM): > 10 µM
IC50 (second compound 0.316 µM): > 10 µM
IC50 (second compound 1 µM): > 10 µM
IC50 (second compound 3.16 µM): > 10 µM
IC50 (second compound 10 µM): > 10 µM
viability, T/C [1]: 102%
viability, T/C [2]: 103%
viability, T/C [3]: 95.1%
viability, T/C [4]: 80.8%
viability, T/C [5]: 71%
viability, T/C [6]: 50.7%
viability, T/C [7]: 104%
viability, T/C [8]: 102%
viability, T/C [9]: 96.2%
viability, T/C [10]: 80%
viability, T/C [11]: 67.7%
viability, T/C [12]: 53.6%
viability, T/C [13]: 91.7%
viability, T/C [14]: 98.5%
viability, T/C [15]: 99.5%
viability, T/C [16]: 96.2%
viability, T/C [17]: 77.4%
viability, T/C [18]: 61.2%
viability, T/C [19]: 83.2%
viability, T/C [20]: 92.8%
viability, T/C [21]: 103%
viability, T/C [22]: 86.3%
viability, T/C [23]: 72.8%
viability, T/C [24]: 77.6%
viability, T/C [25]: 93.9%
viability, T/C [26]: 96.6%
viability, T/C [27]: 90.2%
viability, T/C [28]: 94.7%
viability, T/C [29]: 78.1%
viability, T/C [30]: 71.6%
viability, T/C [31]: 89.7%
viability, T/C [32]: 92.3%
viability, T/C [33]: 93.1%
viability, T/C [34]: 87.7%
viability, T/C [35]: 82%
viability, T/C [36]: 64.7%

— PubChem BioAssay AID2060511 (Molecular Pharmacology Branch, DTP, NCI, 2025)
